Results published in patent US5488049A, “Method of treating learning and memory disorders using benzothiadiazide derivatives as nootropic agents” (FIDIA - Georgetown Institute for the Neuro-Sciences, priority 1993, dated 1996).
“Also recorded” adds a separate entry of the source.

Key:
[1] = test system: kainate-activated current; experiment: Selectivity: ionic current elicited by 20 μM kainate; assay type: cell-based, rat
Description: (§1) Young rats (12-16 days old) were decapitated and the brains quickly removed and placed in ice-cold Ringer solution. Thin slices of hippocampus (250 μm) were then cut with a vibratome slicer (Lancer, St. Louis, Mo.) and kept in Ringer solution at 37° C. until use. The experiments were carried out at room temperature with the slice totally submerged in a 1 ml volume recording chamber and under continuous perfusion with Ringer solution at a rate of 6 ml/min using an upright Hoffman modulation contrast microscope (Carl Zeiss, Germany) equipped with a 40×water immersion objective.
(§2) Media and drug application. The external Ringer solution contained (in mM): NaCl 120; KCl 3.1; CaCl2 2; MgCl2 1; KH2 PO4 1; NaHCO3 26; glucose 2.7; and it was continuously bubbled with 95% O2 and 5% CO2. Patch pipettes were filled with a solution containing (in mM): K-gluconate 140; MgCl2 1; ATP.Mg 2; EGTA 0.5; HEPES-KOH 10, pH 7.2. All the drugs under investigation were applied through the recording chamber perfusion system via parallel inputs having a common entry into the chamber. Agonist application was attained using two different systems that allowed a slow or a rapid solution change. Slow solution changes were used during recordings in whole-cell configuration and were obtained by exchanging the solution of the recording chamber within a few seconds. Fast solution changes were obtained with the use of the Y-shaped tubing method that allows complete exchange of solution in less than 10 ms, and is described in detail by Murase et al. (1989).
(§3) Ionic currents in whole-cell configuration and outside-out excised membrane patches were monitored using the patch clamp technique (15).

[2] = test system: rats; experiment: Water maze: drug action on alprazolam-disrupted learning behavior in rats; assay type: in vivo, rat; settings: IDRA 21 10 mg/kg os, 30 min pretreatment; alprazolam 1.5 mg/kg i.p.
Description: Rats (male 250 g b.w.) were trained two days, once a day, in maze A (See insert A). […] Rats were exposed to a new maze configuration (Maze B) in 4 successive trials 15, 30, 45, and 60 min after the i.p. injections.
The water maze apparatus was adapted from Kant et al., (16), and consists of three concentric squares placed inside a 5 ft plastic pool (FIG. 6). The walls of the maze are 50 cm in height and are constructed from black opaque plastic to allow for tracking of the animal with an overhead camera. The alleys between the walls are 16 cm wide. In the center of each wall there is a removable doorway. The opening of doorways allows for the construction of mazes with an increasing number of potential error possibilities. (See diagram for Maze A and Maze B, FIG. 6). The maze is located in a room 10'×15' at constant temperature (18° C.) adjacent to the vivarium. The room is illuminated with overhead lights which also serve as spatial cues. Additional spatial cues are provided by the position of the investigator and a number of small white x's placed within specific locations upon the walls of the maze. The maze is filled with water (18°)C. to a depth of 25 cm.
Seven days prior to drug studies, rats were tested in Maze A (forced maze) on two consecutive days. Pretesting with the "forced" maze enabled the assessment of the animals' general motor, sensory and motivational abilities, and facilitated the exclusion of those animals unable to meet pretesting criteria. Performance was assessed by determining either swim time, errors committed, or path length measured with a computerized recording device. Errors are defined as whole body entry into alleys not leading directly to the exit platform (i.e., shaded portions in FIG. 6). Rats were excluded from the study if their swim path length and/or number of errors were two standard deviations above the mean […] of the entire group. During the first two trials, the rats were placed into the center of the maze and given a maximum of 180 secs to find the "exit platform" located at the "finish" (FIG. 6). The time required, the number of errors, and the path length were recorded for each trial. […] Rats meeting the criteria were randomly divided into groups. On the day of the experiment, a single trial was run (Maze A) in order to establish a baseline of performance. Following drug administration, the rats were again tested once on Maze A to establish a baseline of post-treatment performance. Following an additional interatrial interval of 30 min., the rats were tested on Maze B.
In these experiments, rats were trained in Maze B 15, 30, 45 and 60 min. after drug injection.

[3] = test system: AMPA receptors located on CAl pyramidal neuronal membranes; experiment: Slow bath perfusion, whole-cell: potentiation of glutamate-elicited current (with MK-801) in CAl pyramidal neurons of hippocampal slices; assay type: cell-based, rat
Description: as §1, §2
IDRA compounds (see above for structures) were first dissolved in 50 μl of DMSO, then […] of 1N NaOH and water (sufficient to reach a volume of 1 ml and a concentration of 10 mM). The final concentration was reached diluting the stock solution with Ringer solution.
as §3
The action diazoxide and the IDRA analogues were tested on the desensitization of AMPA receptors located on CAl pyramidal neuronal membranes in rat hippocampal slices. In order to evaluate whether the compounds under study increase the intensity of currents generated by the activation of non-NMDA receptors, these receptors were activated with glutamate in the presence of 5 μM MK-801 to block completely the ionic current elicited by glutamate acting on the NMDA receptor channels present in CAl pyramidal neurons. Three distinct methods of drug application were employed: 1) slow bath perfusion of agonist and drugs while recording in whole-cell mode (onset 30s); ii) fast application to outside-out patches of a fixed concentration of agonist with a double barrel pipette (onset<1 ms) in the presence and the absence of drugs; iii) fast perfusion (onset<6 ms) of increasing concentrations of agonist and drugs applied with the Y-tubing device to outside-out patches excised from neurons in brain slices and to voltage-clamped neurons in primary culture.
. The most efficacious (1 mM) derivative was IDRA21, which elicited a potentiation of 797±220% (n=4 cells), followed by IDRA 20 with a potentiation of 292±100% (n=4 cells) (FIG. 2). […]

CC1Nc2ccc(Cl)cc2S(=O)(=O)N1 (racemic) [IDRA 21, 7-chloro-3-methyl-3,4-dihydro-2H 1,2,4-benzothiadiazine S-S dioxide]
effect on kainate-activated current ([1]; 1 mM compound, 20 μM kainate): failed to potentiate the kainate-activated current
effect on kainate responses at doses that decreased AMPA desensitization ([1]; all doses that decrease/inhibit AMPA desensitization): failed to affect kainate responses
antagonism of alprazolam amnesic effect [2]: reduces the amnesic effect of alprazolam; also recorded: attenuates the learning disruptive effect of Alprazolam
potentiation of glutamate-elicited current ([3]; 10 μM compound, mean±SE, N=4 cells): 65±6.9%
potentiation of glutamate-elicited current ([3]; 100 μM compound, mean±SE, N=4 cells): 109±30%
efficacy relative to diazoxide (potentiation of glutamate current) ([3]; 1 mM): 4 fold
potentiation of glutamate-elicited current ([3]; 1 mM compound, 50 μM glutamate, 5 μM MK-801, whole-cell, slow perfusion): 797±200%
potentiation of glutamate-elicited current ([3]; 1 mM compound, 50 μM glutamate, 5 μM MK-801, whole-cell, slow perfusion, listed as IDRA21): 797±220%
maximal efficacy reached, in words ([3]; 1 mM, maximal dose testable without vehicle effect): failed to reach maximal efficacy at 1 mM
potentiation of glutamate current, dose dependence ([3]; up to 1 mM): dose-dependent potentiation
